In PMC9699003, “Arene Variation of Highly Cytotoxic Tridentate Naphthoquinone-Based Ruthenium(II) Complexes and In-Depth In Vitro Studies” (Pharmaceutics, 2022):

Assays:
Format in all cases: cell-based, human
[1] = test system: SW480 cells; experiment: Colony formation assay; details: SW480, 11 days, relative to untreated control
Experimental: For the colony formation assay, SW480 cells were seeded at a density of 350 cells/2 mL into each well of 6-well plates (CytoOne, tissue culture treated) and left to adhere for 24 h. To determine the long-term effects of the test compounds, the cells were exposed to them for 11 days at 37 °C and 5% CO2. After incubation, the wells were gently washed with 1 mL cold PBS and the colonies were fixed with 1 mL cold (4 °C) 100% methanol (Thermo Fisher, Waltham, MA, USA) for 30 min at 4 °C and washed with 1 mL PBS again. The fixed colonies were stained with 1 mL of 0.5% w/v crystal violet (Sigma-Aldrich) in methanol for 2 min and the plates were washed under tap water. After drying the plates, images of the wells were captured, and colonies were counted with the colony counting function of Fusion Fx7 software (Vilber Lourmat, Collégien, France). Results were normalized to untreated controls. Data are averaged from at least three independent experiments.

[2] = test system: SW480 colon carcinoma cells; experiment: MTT assay (cytotoxicity); details: Homo sapiens, 24 h exposure
Method in brief: (§1)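 Cells in supplemented MEM were exposed 24 h or 96 h to nine two-fold serial dilutions (DMSO stocks 20 or 40 mM), in triplicate. Viability by MTT conversion for 4 h, formazan dissolved in DMSO, absorbance at 550 nm (690 nm reference); IC50 interpolated from blank-corrected OD, ≥3 independent experiments.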

[3] = test system: A549 non-small cell lung cancer cells; experiment: MTT assay (cytotoxicity); details: Homo sapiens, 24 h exposure
Method in brief: as §1

[4] = test system: CH1/PA-1 ovarian teratocarcinoma cells; experiment: MTT assay (cytotoxicity); details: Homo sapiens; CH1/PA-1, MTT, 24 h exposure
Method in brief: as §1

[5] = test system: CH1/PA-1 cells; experiment: Cell cycle distribution (PI staining, flow cytometry); details: CH1/PA-1, 24 h
Experimental: (§2) For the flow-cytometric determination of cell cycle distribution, CH1/PA-1 (8 × 10^4 cells/well) and SW480 (1.2 × 10^5 cells/well) cells were seeded into 12-well plates (CytoOne, tissue culture treated) in 1 mL supplemented MEM. In the first 24 h, the cells were allowed to settle and resume exponential growth. […] Gemcitabine (Sigma-Aldrich, 0.01 and 0.05 µM) and etoposide (Sigma-Aldrich, 0.25, 0.5 and 1 µM) were used as positive controls. After removal of the treatment medium, cells were washed with 1 mL PBS and trypsinized. Cells were collected in Eppendorf tubes and centrifuged (300 g, 3 min), and the supernatant was discarded. In the following step, cells were washed with 1 mL PBS and resuspended in 500 µL PI/HFS buffer (0.1% v/v Triton X-100, 0.1% w/v sodium citrate, in PBS) containing 25 µg/mL propidium iodide (PI, 1.0 mg/mL, Sigma-Aldrich). The staining was carried out overnight at 4 °C in the dark, and 200 µL of the cell suspension was loaded into 96-well round bottom plates (Falcon). Samples were measured with a Millipore Guava easyCyte 8HT flow cytometer with GuavaSoft™ software in the InCyte-modus, and 10,000 events/sample were detected. Data were analyzed with FlowJo software v 10.8.1 (Tree Star, Ashland, OR, USA) using Watson algorithm. Percentages of cells in the three cell cycle phases (G1/G0, S and G2/M) were calculated by integrating the resulting histograms of fluorescence signals (Figures S29 and S30). Experiments were repeated at least three times. For statistical evaluation, an unpaired t-test with Welch’s correction was performed by using GraphPad PRISM software.

[6] = test system: SW480 cells; experiment: as above; details: SW480, 24 h
Experimental: as §2

CC1=C(O)C(=O)c2ccccc2C1=O [L, 2-Hydroxy-3-methyl-1,4-naphthoquinone]
Number of colonies ([1]; 50 µM): 62 ± 25%
Number of colonies ([1]; 150 µM): 0 ± 0%
IC50 [2]: > 400 µM
IC50 [3]: > 400 µM
IC50 [4]: > 400 µM
Cells in G1/G0 phase ([5]; 100 µM): 37.0 ± 0.3%
Cells in G2/M phase ([5]; 100 µM): 22.9 ± 2.8%
Cells in S phase ([5]; 100 µM): 41.4 ± 2.4%
Cells in G1/G0 phase ([5]; 150 µM): 40.8 ±1.7%
Cells in G2/M phase ([5]; 150 µM): 19.3 ± 1.9%
Cells in S phase ([5]; 150 µM): 42.1 ± 2.7%
Cells in G1/G0 phase ([5]; 200 µM): 47.2 ± 1.7%
Cells in G2/M phase ([5]; 200 µM): 16.8 ± 8.9%
Cells in S phase ([5]; 200 µM): 37.6 ± 3.5%
Cells in G1/G0 phase ([6]; 50 µM): 47.4 ± 2.0%
Cells in G2/M phase ([6]; 50 µM): 14.5 ± 0.5%
Cells in S phase ([6]; 50 µM): 38.8 ± 1.7%
Cells in G1/G0 phase ([6]; 100 µM): 51.5 ± 5.0%
Cells in G2/M phase ([6]; 100 µM): 12.1 ± 0.4%
Cells in S phase ([6]; 100 µM): 35.9 ± 3.4%
Cells in G1/G0 phase ([6]; 150 µM): 52.0 ± 2.9%
Cells in G2/M phase ([6]; 150 µM): 11.3 ± 0.5%
Cells in S phase ([6]; 150 µM): 36.3 ± 2.2%
Cell cycle perturbation (in words) ([6]; tested concentrations): did not show any cell cycle perturbation
